These results are taken from patent US20210213135A1 (Purdue Research Foundation, priority 2018, published 2021).

Assay [1] deals with Swiss Webster fracture-bearing mice (fracture callus). Nature of the assay: micro CT of the fracture callus in the femur fracture model. The assay is classed as in vivo.
Assay [2] relates to Swiss Webster fracture-bearing mice (healed femur). In words: postmortem 4 point bend of the healed femur. The format is in vivo. From the text: All in vivo data included herein are from Swiss Webster mice. All mice received an osteotomy on their right femur and received subcutaneous drug administration daily for either 2,3 or 4 weeks, or 17 days, as indicated, for each compound. 1× concentration represents 1 nmol/day, 10× represents 10 nmol/day, 100× represents 100 nmol/day most studies have an n of 5.
The term “Peak Load” means a postmortem 4 point bend of the healed femur. Peak load represents the maximum force the healed femur withstood before it refractured.
The targeted conjugates were synthesized using standard Fmoc solid-phase peptide synthesis, as described above. To ensure the conjugates' activity, mouse pre-osteoblast ([…]) cells were treated with the targeted and untargeted compounds for three days at concentrations from 1 pM to 100 nM. After three days of treatment, the cells were harvested, and the RNA was purified from the cells. Expression levels of ALP, RUNx2 (transcription factor for osteoblast differentiation), osterix (OSX), osteopontin (OPN), collagen 1A (Col-1A), OPG, RANKL, sclerostin gene (SOST), and OC were quantified via quantitative reverse transcription polymerase chain reaction (RT-qPCR). Once the biological activity of the conjugates was confirmed, they were tested in vivo in a fracture model. Aseptic surgical techniques were used to place a 23-gage needle as in intramedullary nail in the femur of anesthetized, 12-week-old Swiss Webster mice for internal fixation before fracture. Femur fractures were induced using a drop weight fracture device from RISystem. The mice received buprenorphine for three days post fracture. The mice were dosed subcutaneously each day for three weeks or 17 days. Fracture healing was assessed using microCT (Scanco Medical Ag). Morphometric parameters were quantified in the 100 widest slices of the fracture callus. Trabecular thickness (Tb.Th.), trabecular spacing (Tb.Sp.), total volume (TV), and volume of calcified callus (BV) were calculated. Fractured femurs were tested for strength in a four-point bend to failure using an Electro Force TestBench (TA Instruments). Lower supports were 10 mm apart on the anterior face of the femur in contact with the proximal and distal diaphysis. Upper supports were 4 mm apart and spanned the entire fracture callus on the diaphysis. Force was applied from the posterior face of the femur with a displacement rate of 0.3 mm/sec. Peak load, yield load, stiffness, displacement post yield, work to fracture, and deformation data were generated. Statistical analysis was performed using a two-way analysis of variance (ANOVA) and a Tukey post-hoc analysis with significance reported at the 95% confidence level. All animal experiments were performed in accordance with protocols approved by Purdue University's Institutional Animal Care and Use Committee (IACUC).

Setting [3] is: 2 weeks, 1, 10 and 100 nmol/day.
The mark [4] stands for this setting: 3 weeks, 1, 10 and 100 nmol daily s.c., n=5.
[5] abbreviates: 3 weeks, 0.1, 1 and 10 nmol daily s.c.
The mark [6] stands for this setting: 3 weeks, 1 and 10 nmol daily s.c., n=10.
Where [7] appears, read: 4 weeks, 1, 10 and 100 nmol/day.
The mark [8] stands for this setting: 3 weeks, 0.1, 1 and 10 nmol daily s.c., n=5.
The mark [9] stands for this setting: 17 days, 0.1, 1 and 10 nmol daily s.c., n=5.
[10] abbreviates: 17 days, 1, 10 and 100 nmol daily s.c., n=5.

Bridges are numbered along the chain shown (N, C = ends). Primed or numbered codes have the meaning given here. Where no end group is shown, it is not given here. [ ]: non-standard residue; d: D form. mp4″ = 4 mini PEG linker (mini-PEG spacer); PEG10′ = polyethylene glycol 10 linker; minipeg = minipeg spacer; Dap = NC[C@H](N)C(=O)O

Regarding “BFP-D10: SEQ ID NO: 1, bone forming peptide conjugated with 10 aspartate acids: DDDDDDDDDDGQGFSYPYKAVFSTQ (BFP D10)”, in assay [1] (setting [3]), the BV/TV result was “dose dependent manner” and the TbSp result is listed as “dose dependent manner”. Besides, the “Peak load of fractured femurs” value in assay [2] (after 2 weeks, 100 nmol/day (100×), compared to PBS) is given as “obtained the maximum peak load”.

On to “CBD_MP4_(D)E10: SEQ ID NO: 32, 1-28 of osteopontin followed by 4 peg 2 spacers followed by ten d glutamic acids (HNGVFKYRPRYYLYKHAYFYPHLKRFPVQEEEEEEEEEE; 4 PEG2 spacers; D-glutamic acids; CBD _MP4_e10)”, for which, in assay [1] (setting [4]), the BV/TV result is reported as “raises bone density” and the “Tbth (trabecular thickness)” value is reported as “raises bone quality”. Further, the Work to fracture entry in assay [2] (setting [4]) was “improves bone strength”.

As to “CBM D10: SEQ ID NO: 9, collagen binding motif of osteopontin conjugated with 10 aspartate acids”, in assay [1] (setting [5]), the BV/TV result was “dose dependent manner”.

Turning to “CBM(1-19)_D10: SEQ ID NO: 31, truncated version (1-19) of the collagen binding motif of human osteopontin targeted by D10 (HDDDDDDDDDDGLRSKSKKFRRPDIQYPDA; CBM(1-19)-D10 collagen binding motif)”, in assay [1] (setting [4]), the BV/TV entry is “raises bone density” and the “Tbth (trabecular thickness)” value is on record as “raises bone quality”. Further, the “Max load (peak load)” value in assay [2] (setting [4]) is listed as “improves bone strength”.

Turning to “CNP D10: SEQ ID NO: 7, C-type Natriuretic peptide conjugated with 10 aspartate acids (HDDDDDDDDDDGLSKGCFGLKLDRIGSMSGLGC; disulfide 17-33)”, in assay [1] (4 weeks, 1 and 10 nmol/day), the BV/TV entry is given as “dose dependent manner”.

Regarding “CTC_mp4_(D)E10: SEQ ID NO: 21, CTC linked via 4 minipegs to 10 (D) glutamic acids (H[dE][dE][dE][dE][dE][dE][dE][dE][dE][dE][minipeg][minipeg][minipeg][minipeg]IAGVGGEKSGGF)”, the BV/TV result in assay [1] (setting [6]) is given as “raises bone density”. In assay [2] (setting [6]), the “Max load (peak load)” value was “raises bone strength” and the Work to fracture result was “raises bone strength”.

With “CTC_peg10_(D)E10: SEQ ID NO: 20, chemotactic collagen fragment CTC linked via polyethylene glycol 10 to 10 (D) glutamic acids (H[dE][dE][dE][dE][dE][dE][dE][dE][dE][dE][PEG10′]IAGVGGEKSGGF)”, the BV/TV result in assay [1] (setting [5]) is on record as “raises bone density”. The “Max load (peak load)” value in assay [2] (setting [4]) was “improves bone strength”.

Consider “DGEA_mp4_(D)E10: SEQ ID NO: 24, DGEA with Serine and Proline on C terminus, 4 minipeg spacers and ten d glutamic acids (H[dE][dE][dE][dE][dE][dE][dE][dE][dE][dE][minipeg][minipeg][minipeg][minipeg]DGEASP)”, for which, in assay [1] (setting [4]), the “BV (bone volume)” value is listed as “raises bone mineralization” and the BV/TV result was “raises bone density”. In addition, in assay [2] (setting [4]), the “Max load (peak load)” value is on record as “raises bone strength” and the Work to fracture result is given as “raises bone strength”.

For “Ghrelin-D10: SEQ ID NO: 5, Ghrelin D10 with Ser-3 replaced with diaminopropionic acid (HG[Dap]FLSPEHQKAQQRKESKKPPAKLQPRDDDDDDDDDD; ends and bridges not checked)”, the BV/TV entry in assay [1] (setting [7]) is recorded as “dose dependent manner”.

On to “IKVAV_mp4_(D)E10: SEQ ID NO: 26, laminin fragment IKVAV conjugated via 4 minipegs with 10 glutamic acids (H[dE][dE][dE][dE][dE][dE][dE][dE][dE][dE][minipeg][minipeg][minipeg][minipeg]GQAASIKVAVSADR)”, for which the BV/TV result in assay [1] (setting [5]) was “raises bone density”. Further, the “BV (bone volume)” value in assay [1] (setting [8]) is “raises bone mineralization”. In assay [2] (setting [8]), the “Max load (peak load)” value is recorded as “raises bone strength” and the Work to fracture result is listed as “raises bone strength”.

“LN2_P3_mp4_(D)E10: SEQ ID NO: 27, laminin a2 motif DLTIDDSYWYRI with N terminally attached minipeg 4 spacer and targeting ligand (H[dE][dE][dE][dE][dE][dE][dE][dE][dE][dE][mp4″]DLTIDDSYWYRI)”: in assay [1] (setting [9]), the “BV (bone volume)” value is “raises bone mineralization” and the BV/TV result was “raises bone density”. For the same substance, in assay [2] (setting [9]), the “Max load (peak load)” value is given as “raises bone strength” and the Work to fracture entry is recorded as “raises bone strength”.

As to “MGF D10: SEQ ID NO: 11, Mechano-growth factor with 10 aspartate acids: DDDDDDDDDDYQPPSTNKNTKSQRRKGSTFEEHK (Mechano-growth factor (MGF) D10, an IGF-I fragment)”, the BV/TV result in assay [1] (4 weeks, 1 and 10 nmol/day) was “dose dependent manner”.

As to “ODP D10: SEQ ID NO: 13, Osteopontin-derived peptide conjugated with 10 aspartate acids (DDDDDDDDDD[mp4″]DVDVPDGRGDSLAYG)”, the BV/TV entry in assay [1] (4 weeks, 1 nmol/day) was “healing was reflected as BV/TV”.

For the substance “OGP-D10: SEQ ID NO: 2, osteogenic growth peptide conjugated with 10 aspartate acids: DDDDDDDDDDALKRQGRTLYGFGG (OGP D10)”, in assay [1] (2 weeks, 1 and 100 nmol/day), the BV/TV entry is “dose dependent manner”, the TbSp result is on record as “dose dependent manner” and the TbTh result is on record as “dose dependent manner”.

As to “P3_mp4_(D)E10: SEQ ID NO: 29, P3 fragment of bone sialoprotein followed by a 4 minipeg spacer and 10 (D) glutamic acids (HYESENGEPRGDNYRAYEEEEEEEEEE; 4 minipeg spacer; D-glutamic acids; P3_mp4_e10)”, in assay [1] (setting [10]), the “BV (bone volume)” value is listed as “raises bone mineralization” and the BV/TV entry is “raises bone density”. Also, in assay [2] (setting [10]), the “Max load (peak load)” value is listed as “raises bone strength” and the Work to fracture entry was “raises bone strength”.

Regarding “P4 D10: SEQ ID NO: 10, P4 (knuckle epitope fragment of hBMP-2) conjugated with 10 aspartate acids (HKIPKASSVPTELSAISTLYLDDDDDDDDDD; P4 D10-a BMP2 fragment)”, in assay [1] (4 weeks, 1 nmol/day), the “BV (bone volume)” value is reported as “healing was reflected”. In addition, the BV/TV entry in assay [1] (4 weeks, 1 and 10 nmol/day) was “dose dependent manner”.

Consider “P-15_(D)E10: SEQ ID NO: 22, P15 collagen fragment conjugated with 10 glutamic acids (HGTPGPQGIAGQRGVV[dE][dE][dE][dE][dE][dE][dE][dE][dE][dE])”, for which the BV/TV entry in assay [1] (setting [5]) is reported as “raises bone density”. In addition, in assay [2] (setting [8]), the “Max load (peak load)” value is recorded as “raises bone strength”.

On to “P-15_mp4_(D)E10: SEQ ID NO: 23, a P15 fragment connect via 4 peg2 spacers to (D)E10 bone targeting ligand (HGTPGPQGIAGQRGVVEEEEEEEEEE; 4 PEG2 spacers; D-glutamic acids; P15_mp4_e10)”, for which, in assay [1] (setting [4]), the “BV (bone volume)” value was “raises bone mineralization” and the BV/TV result is recorded as “raises bone density”. Moreover, in assay [2] (setting [4]), the “Max load (peak load)” value is recorded as “raises bone strength” and the Work to fracture entry is “raises bone strength”.

As for “Preptin D10: SEQ ID NO: 3, Preptin conjugated with 10 aspartate acids (HDVSTSQAVLPDDFPRYDDDDDDDDDD; Preptin D10)”, in assay [1] (setting [3]), the “BV (bone volume)” value was “dose dependent manner”, the BV/TV result is “dose dependent manner” and the TbTh entry is recorded as “dose dependent manner”.

As for “VIP D10: SEQ ID NO: 8, Vasoactive intestinal peptide conjugated with D10 (HHSDAVFTDNYTRLRKQMAVKKYLNSILNDDDDDDDDDD; Vasoactive intestinal peptide with D10 (VIP D10))”, in assay [1] (4 weeks, 1 nmol/day), the BV/TV entry is “healing was reflected as BV/TV” and the TbTh entry is “healing was reflected”.

Regarding “pBMP9 D10: SEQ ID NO: 6, peptide from knuckle epitope of human BMP-9 targeted with D10 (CGGKVGKACCVPTKLSPISVLYK[mp4″]DDDDDDDDDD; cysteine pairing not given here)”, in assay [1] (setting [7]), the “BV (bone volume)” value is on record as “dose dependent manner” and the BV/TV entry is “dose dependent manner”.
